# Test results from patent US10213451B2, “Methods and compounds for modulating the secretion or expression of adhesion proteins or angiopoietins of cells” (PACIFIC ARROW LIMITED, priority 2004, dated 2019).
# pIC50: −log10 of the molar value. Where two headings read alike, the source gives them in different places.
# Experiments:
# ovarian cancer cells = assay: MTT assay, growth of ovarian cancer cells (FIG. 3A, 3B); type: cell-based; settings: Homo sapiens, read-out: IC50, inhibiting growth of ovarian cancer cells
# Procedure: (§1) Cells. Human cancer cell lines were obtained from American Type Culture Collection: HTB-9 (bladder), HeLa-S3 (cervix), DU145 (prostate), H460 (lung), MCF-7 (breast), K562 (leukocytes), HCT116 (colon), HepG2 (liver), U2OS (bone), T98G (brain), SK-MEL-5 (Skin) and OVCAR-3 (ovary). The cells were grown in following culture media: HeLa-53, DU145, MCF-7, Hep-G2 and T98G are in MEN (Earle's salts); HTB-9, H460, K562 and OVCAR-3 in RPMI-1640; HCT-116 and U2OS in McCoy-5A. They are supplemented with 10% fetal calf serum, glutamine and antibiotics, and incubated in an incubator with 5% CO2 humidified at 37° C.
# (§2) MTT Assay. The procedure for MTT assay followed the method described by Carmichael et al. (1987) with modifications. […] The formazan (product of the reduction of tetrazolium by viable cells) formed and was dissolved with DMSO and the O.D. at 490 nm, and was measured by an ELISA reader. The MTT level of the cells before drug-treatment was also measured (T0). The % cell-growth (% G) is calculated as: % G=(TD−T0/TC−T0)×100(1), where TC or TD represents O.D. readings of control or drug-treated cells. When T0>TD, then the cytotoxicity (LC) expressed as % of the control is calculated as: % LC=(TD−T0/T0)×100(2).
# skin cancer cells = assay: MTT assay, growth of skin cancer cells; type: cell-based; settings: Homo sapiens
# Procedure: as §1, §2
# [1] = test system: OVCAR3 cells (from ovary); assay: MTT assay OVCAR3; type: cell-based; settings: Homo sapiens, OVCAR-3; OVCAR3, Serous
# Procedure: as §1
# as §2, with “Assay.” for “Assay. The procedure for MTT assay followed the method described by Carmichael et al. (1987) with modifications.”
# Majority of ovarian cancers arise from the surface epithelium of ovary, most of them belong to the histological subtypes of clear cell and serous carcinoma. […] The inhibition activity exerted by Xanifolia-Y was determined with MTT assay.
# [2] = test system: human ovarian cancer cell lines; assay: MTT assay, additional human ovarian cancer cell lines; type: cell-based; settings: 10 additional human ovarian cancer cell lines
# Procedure: (§3) Majority of ovarian cancers arise from the surface epithelium of ovary, most of them belong to the histological subtypes of clear cell and serous carcinoma. We obtained 10 more human ovarian carcinoma cell-lines of these histological subtypes for these studies. The inhibition activity exerted by Xanifolia-Y was determined with MTT assay.
# [3] = test system: (bladder)TB9 cells / HTB-9; assay: MTT assay bladder cells; type: cell-based, human
# Procedure: as §1
# MTT Assay. The procedure for MTT assay followed the method described by Carmichael et al. (1987) with modifications. The cells were seeded into a 96-well plate at concentration of 10,000/well for HTB-9, HeLa, H460, HCT116, T98G and OVCAR-3), 15,000/well for DU145, MCF-7, HepG2 and U2OS), and 40,000/well for K562 for 24 hours before drug-treatment. The cells were then exposed to the drugs for 48 hours (72 hours for HepG2 and U2OS, and 96 hours for MCF-7). After the drug-treatment, MTT (0.5 mg/mL) was added to cultures and incubated for an hour. The formazan (product of the reduction of tetrazolium by viable cells) formed and was dissolved with DMSO and the O.D. at 490 nm, and was measured by an ELISA reader. The MTT level of the cells before drug-treatment was also measured (T0). The % cell-growth (% G) is calculated as: % G=(TD−T0/TC−T0)×100(1), where TC or TD represents O.D. readings of control or drug-treated cells. When T0>TD, then the cytotoxicity (LC) expressed as % of the control is calculated as: % LC=(TD−T0/T0)×100(2).
# (lung)H460 cells = assay: MTT assay H460; type: cell-based; settings: Homo sapiens, NCI-H460
# Procedure: as §1, §2
# (Mouth) KB cells = assay: MTT assay KB; type: cell-based; settings: Homo sapiens
# TOV-21G = assay: MTT assay TOV-21G; type: cell-based; settings: Homo sapiens, TOV21G, Clear cell
# Procedure: as §3
# OVCA 432 = assay: MTT assay OVCA 432; type: cell-based; settings: Homo sapiens, OVCA432; OVCA 432, Serous
# Procedure: as §3
# SKOV 3 = assay: MTT assay SKOV 3; type: cell-based; settings: Homo sapiens, SK-OV-3; SKOV 3, Serous
# Procedure: as §3
# [4] = test system: ES2 (human ovarian cancer) cells transplanted sc; assay: Animal study, size of sc ES2 tumor; type: in vivo, Athymic Nu/Nu mice
# Procedure: • Athymic Nu/Nu mice (2-3 months old) were transplanted sc with ES2 (human ovarian cancer) cells. • Five days after the transplant (day one), mice were divided into two groups (H and J) with two animals in each group. • Group H: On days 1-5, and 8-10 mice received daily drug administration of Xanifolia-Y, by i.p. route at dose of 2.5 mg/kg. • Group J mice received no drug-treatment.
# [5] = test system: ES2 cells attached to flasks; assay: Inhibition of cell adhesion to flasks, ES2; type: cell-based
# Procedure: (§4) Methods and Results. ES2 or Hey8A cells were plated in T25 flasks with medium containing 5 ug/ml of Xanifolia-Y. Cultures were incubated for 5 hours. Attached cells were removed from flasks by trypsinization and the amounts were counted. Compare to no drug controls, 86±4% of ES2 cells and 67±8% of Hey8A cells were found attached to flasks under this condition. At 5 ug/ml Xanifolia-Y, over 90% of unattached cells are alive as determined by the trypan Blue exclusion assay and by their ability to re-attach to flasks when plating in medium without Xanifolia-Y. However, with 10 ug/ml Xanifolia-Y, less than 40% of cells attached to flasks and many of them are dead cells.
# as §4, with “Results:” for “Results.”
# [6] = test system: blood vessels in ES2 (human ovarian cancer) xenograft tumor; assay: Genesis of blood vessel in xenograft tumor; type: in vivo, Athymic Nu/Nu mice; settings: i.p. 2.5 mg/kg on days 10-15 and 18-22, H&E sections
# Procedure: Method: Athymic Nu/Nu mice (5-6 weeks old) are divided into two groups (1 and 2) with 5 animals in each group. On day 0, all mice were transplanted intra-peritoneally with one million ES2 (human ovarian cancer) cells. Animals were randomly divided into two groups:
# Group 2: Drug-treatment group. On days 10-15 and 18-22, animals received daily drug administration of Xanifolia-Y, by i.p. route at dosage of 2.5 mg/kg.
# Animals with high tumor burden were euthanized and solid tumors were taken out from these mice (between 18-27 days). Tumor tissues fixed with formalin at room temperature. The fixed tissues were sectioned and stained with Haematoxylin and eosin (H&E). The red blood cells inside the micro blood vessels were identified under a microscope.
smiles,measurement,setting,value
"C/C=C(/C)C(=O)O[C@H]1[C@H](OC(=O)/C(C)=C\C)[C@@]2(CO)C(CC1(C)C)C1=CCC3[C@@]4(C)CC[C@H](O[C@@H]5OC(C(=O)O)[C@@H](O)C(O[C@@H]6O[C@@H](CO)C(O)C6O)C5O[C@@H]5OC(CO)[C@H](O)C(O)C5O)C(C)(C)C4CC[C@@]3(C)[C@]1(C)[C@@H](O)[C@H]2O (stereo partly drawn) [Xanifolia-Y, 3-O-[β-D-galactopyranosyl (1→2)]-α-L-arabinofuranosy (1→3)-β-D-glucuronopyranosyl-21,22-O-diangeloyl-3β, 15α, 16α, 21β, 22α, 28-hexahydroxyolean-12-ene]",IC50,ovarian cancer cells,~1.5 mg/L
same,IC50,"skin cancer cells; FIG. 3C, purified compound, read-out: IC50, inhibition of growth of skin cancer cells",0.23 mg/L
same,IC50,skin cancer cells; read-out: IC50 on skin cells,12 mg/L
same,pIC50,[1],5.66
same,pIC50,[2],4.92 to 5.70
same,pIC50,[2]; Homo sapiens,5.00 to 5.70
same,growth of cells compared to the DMSO control (MTT),"[3]; HTB-9, 10 ug/ml",77%-91%
same,IC50,"[3]; Homo sapiens, (bladder)TB9 cells, read-out: IC50",5 mg/L
same,IC50,(lung)H460 cells,7.5 mg/L
same,IC50,(Mouth) KB cells,6 mg/L
same,pIC50,TOV-21G,5.66
same,pIC50,OVCA 432,5.36
same,pIC50,SKOV 3,4.98
same,tumor size smaller than in mice with no drug,[4]; 10 days period,45%
same,tumor size,"[4]; Group H: i.p. 2.5 mg/kg days 1-5 and 8-10, in 10 days",10 mm
same,"cells attached to flasks, compared to no drug controls","[5]; ES2 cells, 5 ug/ml, 5 hours",86±4%
same,"unattached cells alive (trypan Blue exclusion, re-attachment)","[5]; ES2 or Hey8A cells, 5 ug/ml",over 90%
same,cells attached to flasks,"[5]; ES2 or Hey8A cells, 10 ug/ml",less than 40%
same,blood vessels in tumor sections,[6],more blood vessels were observed in the control Group1 than those in the drug-treated Group 2
same,blood vessels in tumor sections,[6]; listed as Xanifolia Y,More blood vessels were observed in the control Group 1 than those in the drug-treated Group 2
